Test results published in patent publication US5521173A, “Tricyclic benzazepine vasopressin antagonists” (American Home Products Corporation, priority 1995, dated 1996).

Assays:
[1] = molecular target: T1, oxytocin receptors (Rattus norvegicus, UniProt P70536); assay: Oxytocin Receptor Binding; parameters: species or system rat (female Sprague-Dawley); settings: for IC50: 1.0 nM [3H]OT
T1 construct: The uteri are dissected out, cleaned of fat and connective tissues; from tissue; host or cells: uteri of DES-treated female Sprague-Dawley rats
T1 sequence (P70536 1-388): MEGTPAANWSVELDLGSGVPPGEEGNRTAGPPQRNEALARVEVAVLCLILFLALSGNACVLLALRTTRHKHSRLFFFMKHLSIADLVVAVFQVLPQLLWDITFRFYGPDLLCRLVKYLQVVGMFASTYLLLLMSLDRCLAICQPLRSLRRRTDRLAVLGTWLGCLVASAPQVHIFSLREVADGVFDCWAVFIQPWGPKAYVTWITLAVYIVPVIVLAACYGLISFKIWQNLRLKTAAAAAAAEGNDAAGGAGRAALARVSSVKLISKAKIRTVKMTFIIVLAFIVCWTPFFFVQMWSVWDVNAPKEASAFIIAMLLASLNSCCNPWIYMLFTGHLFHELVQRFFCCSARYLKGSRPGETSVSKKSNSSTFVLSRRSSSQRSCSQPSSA
Experimental: Oxytocin Receptor Binding
Female Sprague-Dawley rats weighing approximately 200-250 g are injected intramuscularly (i.m.) with 0.3 mg/kg of body weight of diethylstilbestrol (DES). The rats are sacrificed 18 hours later under pentobarbital anesthesia. The uteri are dissected out, cleaned of fat and connective tissues and rinsed in 50 ml of normal saline. The tissue pooled from six rats is homogenized in 50 ml of […] Tris.HCl, containing 0.5 mM dithiothreitol and 1.0 mM EDTA, adjusted to pH 7.4, using a polytron at setting 6 with three passes of 10 sec each. The homogenate is passed through two (2) layers of cheesecloth and the filtrate centrifuged at 1000× g for 10 min. The clear supernatant is removed and recentrifuged at 165,000× g for 30 min. The resulting pellet containing the oxytocin receptors is resuspended in 50.0 mM Tris.HCl containing 5.0 mM MgCl2 at pH 7.4, to give a protein concentration of 2.5 mg/ml of tissue suspension. This preparation is used in subsequent binding assays with [^3 H]Oxytocin.
Binding of 3,5-[^3 H]Oxytocin ([^3 H]OT) to its receptors is done in microtiter plates using [^3 H]OT, at various concentrations, in an assay buffer of 50.0 mM Tris.HCl, pH 7.4 and containing 5.0 mM MgCl2, and a mixture of protease inhibitors: BSA, 0.1 mg; aprotinin, 1.0 mg; 1,10-phenanthroline, 2.0 mg; […], 10.0 mg; and PMSF, 0.3 mg per 100 ml of buffer solution. Non-specific binding is determined in the presence of 1.0 uM unlabeled OT. The binding reaction is terminated after 60 min., at 22° C., by rapid filtration through glass fiber filters using a Brandel, cell harvester (Biomedical Research and Development Laboratories,Inc., Gaithersburg, Md.). Competition experiments are conducted at equilibrium using 1.0 nM [^3 H]OT and varying the concentration of the displacing agents. The concentrations of agent displacing 50% of [^3 H]OT at its sites (IC50) are calculated by a computer assisted LUNDON-2 program (LUNDON SOFTWARE INC., Ohio, USA).

[2] = test system: Vasopressin V2; assay: Vasopressin V2 Antagonist Activity in Conscious Hydrated Rats; format: in vivo, rat; settings: 10 mg/kg orally, AVP 0.4 μg/kg i.p.; for Osmolality: urine
Experimental: Two to four rats are used for each compound. One hour later, arginine vasopressin (AVP, antidiuretic hormore, ADH) dissolved in peanut oil is administered at 0.4 μg/kg intraperitoneally. Two rats in each test would not receive arginine vasopressin but only the vehicle (peanut oil) to serve as water-loading control. Twenty minutes later each rat is given 30 mL/kg of deionized water orally by gavage and is placed individually in a metabolic cage equipped with a funnel and a graduated glass cylinder to collect urine for four hours. Urine volume is measured and osmolality analyzed by use of a Fiske One-Ten osmometer (Fiske Assoc., Norwood, Mass., USA). Urinary sodium, potassium, and chloride are analyzed by use of ion-specific electrodes in a Beckman E3 (Electrolyte 3) Analyzer. In the following results, […] and decreased osmolality relative to AVP-control indicates activity.

[3] = test system: Vasopressin V1; assay: Vasopressin V1 Antagonist Activity in Conscious Rats (vasopressin vasopressor response); format: in vivo, rat; settings: for Max % Inhibition: vasopressin vasopressor response
Experimental: Vasopressin V1 Antagonist Activity in Conscious Rats Conscious rats are restrained in a supine position with elastic tape. The area at the base of the tail is locally anesthetized by subcutaneous in filtration with 2% procaine (0.2 ml). Using aseptic technique the ventral caudal tail artery is isolated and a cannula made of PE 10 and 20 (heat-fused) tubing is passed into the lower abdominal aorta. The cannula is secured, heparinized (1000 i.u./cc), sealed and the wound closed with one or two stitches of Dexon 4-0. The caudal vein is also cannulated in the same manner for intravenous drug administration. The duration of the surgery is approximately 5 minutes. Additional local anesthesia (2% procaine or lidocaine) is provided as needed. The animals are placed in plastic restraining cages in an upright position. The cannula is attached to a Statham P23Db pressure transducer and pulsatile blood pressure is recorded. […] Percentage of antagonism by the compound is calculated using the pre-drug vasopressin vasopressor response as 100%. The results of this test on representative compounds of this invention in which the dose, the maximum % inhibition and the time in minutes, are shown in Table III.

[4] = molecular target: T2, Vasopressin V1 receptor subtype in Human Platelet Membranes (Homo sapiens, UniProt P37288); assay: Binding to Vasopressin V1 receptor subtype in Human Platelet Membranes
T2 construct: tissue Hudson Valley Blood Services, Westchester Medical Center, Valhalla, N.Y; host or cells: human platelets (frozen platelet rich plasma)
T2 sequence (P37288 whole entry): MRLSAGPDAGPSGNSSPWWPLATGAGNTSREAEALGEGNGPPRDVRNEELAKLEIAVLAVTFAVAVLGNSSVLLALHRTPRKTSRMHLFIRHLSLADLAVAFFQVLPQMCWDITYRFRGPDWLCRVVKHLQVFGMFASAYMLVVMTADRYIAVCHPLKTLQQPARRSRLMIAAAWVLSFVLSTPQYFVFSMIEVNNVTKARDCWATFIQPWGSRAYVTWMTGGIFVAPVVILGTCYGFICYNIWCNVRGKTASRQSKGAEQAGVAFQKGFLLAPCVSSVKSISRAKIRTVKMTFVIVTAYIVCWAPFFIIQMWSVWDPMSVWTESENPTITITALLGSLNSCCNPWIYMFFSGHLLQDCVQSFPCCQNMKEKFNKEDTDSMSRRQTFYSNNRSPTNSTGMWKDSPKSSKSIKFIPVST
Experimental: Radioligand Binding Experiments with Human Platelet Membranes
(a) Platelet Membrane Preparation
Frozen platelet rich plasma (PRP), (Platelet Source: Hudson Valley Blood Services, Westchester Medical Center, Valhalla, N.Y.) are thawed to room temperature. The tubes containing the PRP are centrifuged at 16,000×g for 10 min. at 4° C. and the supernatant fluid discarded. The platelets resuspended in an equal volume of 50.0 mM Tris.HCl, pH 7.5 containing 120 mM NaCl and 20.0 mM EDTA. The suspension is recentrifuged at 16,000× g for 10 min. This washing step is repeated one more time. The wash discarded and the lysed pellets homogenized in low ionic strength buffer of Tris.HCl, 5.0 mM, pH 7.5 containing 5.0 mM EDTA. The homogenate is centrifuged at 39,000× g for 10 min. The resulting pellet is resuspended in Tris.HCl buffer, 70.0 mM, pH 7.5 and recentrifuged at 39,000× g for 10 min. The final pellet is resuspended in 50.0 mM Tris.HCl buffer pH 7.4 containing 120 mM NaCl and 5.0 mM KCl to give 1.0-2.0 mg protein per ml of suspension.
(b) Binding to Vasopressin V1 receptor subtype in Human Platelet Membranes
In wells of a 96 well format microtiter plate, add 100 μl of 50.0 mM Tris.HCl buffer containing 0.2% BSA and a mixture of protease inhibitors (aprotinin, leupeptin etc.). Then add 20 μl of [^3 H]Ligand (Manning or Arg^8 Vasopressin), to give final concentrations ranging from 0.01 to 10.0 nM. Initiate the binding by adding 80.0 μl of platelet suspension (approx. 100 μg protein). Mix all reagents by pipetting the mixture up and down a few times. Non specific binding is measured in the presence of 1.0 µM of unlabeled ligand (Manning or Arg^8 Vasopressin). Let the mixture stand undisturbed at room temperature for ninety (90) min. Upon this time, rapidly filter off the incubate under vacuum suction over GF/B filters, using a Brandel Harvester. Determine the radioactivity caught on the filter disks by the addition of liquid scintillant and counting in a liquid scintillator.

Cc1ccc(Oc2ccc(C(=O)N3Cc4cccn4Cc4ccccc43)cc2)cc1 [Example 18, 10,11-Dihydro-10-[4-(4-methylphenoxy)benzoyl]-5H-pyrrolo[2,1-c][1,4]benzodiazepine]
inhibition at 10 µM [1]: 99%
IC50 [1]: 120 nM
Urine Volume [2]: 5.3 ml/4 hrs
Osmolality [2]: 919 mOsm/kg
Time (of maximum % inhibition) ([3]; 30 mg/kg iv): 300 min
Max % Inhibition ([3]; 30 mg/kg iv): 36%
IC50 [4]: 280 nM

Cc1ccc(S(=O)(=O)c2ccc(C(=O)N3Cc4cccn4Cc4ccccc43)cc2)cc1 [Example 13, 10,11-Dihydro-10-[4-[(4-methylphenyl)sulfonyl]benzoyl]-5H-pyrrolo[2,1-c][1,4]benzodiazepine]
inhibition at 10 µM [1]: 67%
Urine Volume [2]: 5.5 ml/4 hrs
Osmolality [2]: 1380 mOsm/kg
IC50 [4]: 21 nM

O=C(c1ccc(C#Cc2ccccc2)cc1)N1Cc2cccn2Cc2ccccc21 [Example 4, 10,11-Dihydro-10-[4-(phenylethynyl)-5H-pyrrolo[2,1-c]1,4]benzodiazepine]
inhibition at 10 µM [1]: 62%
Urine Volume [2]: 6.3 ml/4 hrs
Osmolality [2]: 1033 mOsm/kg
Time (of maximum % inhibition) ([3]; 30 mg/kg iv): 90 min
Max % Inhibition ([3]; 30 mg/kg iv): 30%

O=C(c1ccc(S(=O)(=O)c2ccccc2)cc1)N1Cc2cccn2Cc2ccccc21 [Example 12]
inhibition at 10 µM [1]: 69%
Urine Volume [2]: 5.8 ml/4 hrs
Osmolality [2]: 1254 mOsm/kg

O=C(c1ccc(-c2nccs2)cc1)N1Cc2cccn2Cc2ccccc21 [Example 10, 10,11-Dihydro-10-[4-(2-thiazolyl)benzoyl]-5H-pyrrolo[2,1-c][1,4]benzodiazepine]
inhibition at 10 µM [1]: 77%
IC50 [1]: 2500 nM

CN(C)Cc1ccc2n1Cc1ccccc1N(C(=O)c1ccc(-c3ccccc3)cc1)C2 [Example 20, 10-([1,1'-Biphenyl]-4-ylcarbonyl)-10,11-dihydro-N,N-dimethyl-5H-pyrrolo[2,1-c][1,4]benzodiazepine-3-methanamine]
inhibition at 10 µM [1]: 100%
IC50 [1]: 110 nM
Urine Volume [2]: 3.5 ml/4 hrs
Osmolality [2]: 1650 mOsm/kg
Time (of maximum % inhibition) ([3]; 10 mg/kg iv): 240 min
Max % Inhibition ([3]; 10 mg/kg iv): 61%
IC50 [4]: 13 nM

Cc1ccc(Sc2ccc(C(=O)N3Cc4cccn4Cc4ccccc43)cc2)cc1 [Example 11]
inhibition at 10 µM [1]: 86%
IC50 [1]: 1800 nM
Urine Volume [2]: 11 ml/4 hrs
Osmolality [2]: 825 mOsm/kg
Time (of maximum % inhibition) ([3]; 30 mg/kg iv): 300 min
Max % Inhibition ([3]; 30 mg/kg iv): 54%

O=C(c1ccc(Sc2ccccc2)cc1)N1Cc2cccn2Cc2ccccc21 [Example 15, 10,11-Dihydro-10-[4-(phenylthio)benzoyl]-5H-pyrrolo[2,1-c][1,4] benzodiazepine]
inhibition at 10 µM [1]: 98%
IC50 [1]: 2100 nM
Urine Volume [2]: 4 ml/4 hrs
Osmolality [2]: 1278 mOsm/kg

O=C(c1ccccc1)c1ccc(C(=O)N2Cc3cccn3Cc3ccccc32)cc1 [Example 16, 10-(4-Benzoylbenzoyl)-10,11-dihydro-5H-pyrrolo[2,1-c][1,4]benzodiazepine]
inhibition at 10 µM [1]: 100%
IC50 [1]: 110 nM
Urine Volume [2]: 6 ml/4 hrs
Osmolality [2]: 1022 mOsm/kg
Time (of maximum % inhibition) ([3]; 10 mg/kg iv): 240 min
Max % Inhibition ([3]; 10 mg/kg iv): 67%

O=C(c1ccc(-c2ccccc2)cc1)N1Cc2cccn2-c2ccccc21 [Example 17, 5-([1,1'-Biphenyl]-4-ylcarbonyl)-4,5-dihydropyrrolo[1,2-a]quinoxaline]
inhibition at 10 µM [1]: 92%
IC50 [1]: 1090 nM
Urine Volume [2]: 10.3 ml/4 hrs
Osmolality [2]: 929 mOsm/kg
Time (of maximum % inhibition) ([3]; 30 mg/kg iv): 60 min
Max % Inhibition ([3]; 30 mg/kg iv): 63%

C=CCOc1ccc(-c2ccc(C(=O)N3Cc4cccn4Cc4ccccc43)cc2)cc1 [Example 14, 10,11-Dihydro-10-[[4'-(2-propenyloxy)[1,1'-biphenyl]-4-yl]carbonyl]-5H-pyrrolo[2,1-c][1,4]benzodiazepine]
inhibition at 10 µM [1]: 67%
Urine Volume [2]: 4 ml/4 hrs
Osmolality [2]: 1247 mOsm/kg
Time (of maximum % inhibition) ([3]; 30 mg/kg iv): 90 min
Max % Inhibition ([3]; 30 mg/kg iv): 50%

O=C(c1ccc(-c2cccs2)cc1)N1Cc2cccn2Cc2ccccc21 [Example 1, 10,11-Dihydro-10-[4-(2-thienyl)benzoyl]-5H-pyrrolo[2,1-c][1,4]benzodiazepine]
Urine Volume [2]: 5 ml/4 hrs
Osmolality [2]: 1148 mOsm/kg
Time (of maximum % inhibition) ([3]; 30 mg/kg po): 120 min
Max % Inhibition ([3]; 30 mg/kg po): 53%
